Where a name gives a salt, the structure may show the parent alone.

The target in the assay is CGRP receptor (Homo sapiens, UniProt O60894+Q16602). In words: CGRP radioligand binding assay ([125I]-CGRP displacement, SK-N-MC homogenate). Also noted: endogenous in cells; host or cells: SK-N-MC cells (homogenate/membrane pellet). To be noted: displacement of [125I]-CGRP, room temperature 2 h. Here is the method: CGRP Binding Assay. Tissue Culture. SK—N-MC cells were grown at 37° C. in 5% CO2 as a monolayer in medium consisting of MEM with Earle's salts and L-glutamine (Gibco) supplemented with 10% fetal bovine serum (Gibco). Cell Pellets. The cells were rinsed twice with phosphate-buffered saline (155 mM NaCl, 3.3 mM Na2HPO4, 1.1 mM KH2PO4, pH 7.4), and incubated for 5-10 min. at 4° C. in hypotonic lysis buffer consisting of 10 mM Tris (pH 7.4) and 5 mM EDTA. The cells were transferred from plates to polypropylene tubes (16×100 mm) and homogenized using a polytron. Homogenates were centrifuged at 32,000×g for 30 min. The pellets were resuspended in cold hypotonic lysis buffer with 0.1% mammalian protease inhibitor cocktail (Sigma) and assayed for protein concentration. The SK—N-MC homogenate was then aliquoted and stored at −80° C. until needed.
CGRP receptor, sequence (Q16602 23-461): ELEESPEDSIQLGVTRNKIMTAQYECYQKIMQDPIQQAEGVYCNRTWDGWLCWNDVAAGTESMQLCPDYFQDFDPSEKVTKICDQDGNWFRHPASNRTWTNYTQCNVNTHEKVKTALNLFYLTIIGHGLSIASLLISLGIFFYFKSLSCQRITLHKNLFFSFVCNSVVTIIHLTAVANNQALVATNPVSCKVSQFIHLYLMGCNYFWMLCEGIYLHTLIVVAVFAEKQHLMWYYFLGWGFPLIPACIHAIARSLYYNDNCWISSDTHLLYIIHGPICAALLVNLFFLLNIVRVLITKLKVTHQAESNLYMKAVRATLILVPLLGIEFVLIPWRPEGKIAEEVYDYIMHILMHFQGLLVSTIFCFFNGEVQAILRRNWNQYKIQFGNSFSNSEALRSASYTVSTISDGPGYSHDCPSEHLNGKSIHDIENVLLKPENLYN
CGRP receptor, sequence (O60894 27-148): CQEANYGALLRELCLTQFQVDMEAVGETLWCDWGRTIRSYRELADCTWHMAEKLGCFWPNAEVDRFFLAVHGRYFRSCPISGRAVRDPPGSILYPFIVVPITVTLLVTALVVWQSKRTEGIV
Radioligand Binding Assay. The compounds of invention were solubilized and carried through serial dilutions using 100% DMSO. Aliquots from the compound serial dilutions were further diluted 25 fold into assay buffer (50 mM Tris-Cl pH 7.5, 5 mM MgCl2, 0.005% Triton X-100) and transferred (volume 50 μl) into 96 well assay plates. [^125I]-CGRP (Amersham Biosciences) was diluted to 60 pM in assay buffer and a volume of 50 μl was added to each well. SK—N-MC pellets were thawed, diluted in assay buffer with fresh 0.1% mammalian protease inhibitor cocktail (Sigma), and homogenized again. SK—N-MC homogenate (5 μg/well) was added in a volume of 100 μl. The assay plates were then incubated at room temperature for 2 h. Assays were stopped by addition of excess cold wash buffer (20 mM Tris-Cl pH 7.5, 0.1% BSA) immediately followed by filtration over glass fiber filters (Whatman GF/B) previously soaked in 0.5% PEI. Non-specific binding was defined with 1 μM beta-CGRP. Protein bound radioactivity was determined using a gamma or scintillation counter. The IC50 was defined as the concentration of a compound of invention required to displace 50% of radioligand binding.

Turning to `Cc1cc2c(cc1N)CN(Cc1ccccc1)C(=O)[C@H](NC(=O)N1CCC(N3Cc4ccccc4NC3=O)CC1)C2` [Example 55, (R)-N-(8-Amino-2-benzyl-7-methyl-3-oxo-2,3,4,5-tetrahydro-1H-benzo[c]azepin-4-yl)-4-(2-oxo-1,2-dihydroquinazolin-3(4H)-yl)piperidine-1-carboxamide trifluoroacetate], the IC50 lay in the range of 100 to 1000 nM.
In the case of `O=C(C[C@@H]1Cc2cc(Br)c3[nH]ncc3c2CN(CC2CC2)C1=O)N1CCC(c2cc3cccc(F)c3[nH]c2=O)CC1` [Example 112, (S)-4-bromo-9-(cyclopropylmethyl)-7-(2-(4-(8-fluoro-2-oxo-1,2-dihydroquinolin-3-yl)piperidin-1-yl)-2-oxoethyl)-6,7,9,10-tetrahydroazepino[3,4-e]indazol-8(3H)-one], the IC50 lay within 10 to 100 nM.
Take `CC(C)(C)CN1Cc2c(cc(Cl)c3[nH]ncc23)C[C@@H](CC(=O)N2CCC(C3C(=O)c4ccccc4NS3(=O)=O)CC2)C1=O` (stereo partly drawn) [Example 76, 1-[[7-(S)-4-choro-9-(2,2-Dimethylpropyl)-3,6,7,8,9,10-hexahydro-8-oxoazepino[3,4-e]indazol-7-yl]acetyl]-4-(3,4-dihydro-2,2-dioxido-4-oxo-1H-2,1-benzothiazin-3-yl)piperidine]: the IC50 was 10 to 100 nM.
For `O=C(C[C@@H]1Cc2cc(Cl)c3[nH]ncc3c2CN(Cc2ccncc2)C1=O)N1CCC(c2ccc(-c3ccccc3)c[n+]2[O-])CC1` [Example 83, (S)-1-[[(7S)-4-chloro-3,6,7,8,9,10-hexahydro-8-oxo-9-(4-pyridinylmethyl)azepino[3,4-e]indazol-7-yl]acetyl]-4-(1-oxido-5-phenyl-2-pyridinyl)-piperidine] the value was 100 to 1000 nM; for `CN1Cc2c(cc(Br)c(O)c2Br)CC(NC(=O)N2CCC(N3Cc4ccccc4NC3=O)CC2)C1=O` (stereo not shown) [Example 34, 4-(2-Oxo-1,4-dihydro-2H-quinazolin-3-yl)-piperidine-1-carboxylic acid (7,9-dibromo-8-hydroxy-2-methyl-3-oxo-2,3,4,5-tetrahydro-1H-benzo[c]azepin-4-yl)-amide], 100 to 1000 nM.
In turn, `CN1Cc2cc(OCc3ccccc3)ccc2CC(NC(=O)N2CCC(N3Cc4ccccc4NC3=O)CC2)C1=O` (stereo not shown) [Example 31, 4-(2-Oxo-1,4-dihydro-2H-quinazolin-3-yl)-piperidine-1-carboxylic acid (8-benzyloxy-2-methyl-3-oxo-2,3,4,5-tetrahydro-1H-benzo[c]azepin-4-yl)-amide] showed an IC50 above 1000 nM.
For the compound `CC(C)(C)CN1Cc2c(cc(Cl)c3[nH]ncc23)C[C@@H](CC(=O)N2CCC(c3ccc(-c4ccccc4)c[n+]3[O-])CC2)C1=O` [Example 84, (S)-1-[[(7S)-4-chloro-9-(2,2-dimethylpropyl)-3,6,7,8,9,10-hexahydro-8-oxoazepino[3,4-e]indazol-7-yl]acetyl]-4-(1-oxido-5-phenyl-2-pyridinyl)-piperidine], the IC50 lay in the range of 100 to 1000 nM.
`CC(C)(C)CN1Cc2c(ccc3[nH]ncc23)C[C@@H](NC(=O)N2CCC(N3Cc4ccccc4CC3=O)CC2)C1=O` [Example 69, (R)-N-(9-Neopentyl-8-oxo-3,6,7,8,9,10-hexahydroazepino[3,4-e]indazol-7-yl)-4-(3-oxo-3,4-dihydroisoquinolin-2(1H)-yl)piperidine-1-carboxamide] displayed a half-inhibitory concentration (IC50) of 10 to 100 nM.
Compound `CC(C)(C)CN1Cc2c(cc(Cl)c3[nH]ncc23)C[C@@H](CC(=O)N2CCC(c3cc4cccnc4[nH]c3=O)CC2)C1=O` [Example 79, 1-[[(7S)-4-chloro-9-(2,2-dimethylpropyl)-3,6,7,8,9,10-hexahydro-8-oxoazepino[3,4-e]indazol-7-yl]acetyl]-4-(1,2-dihydro-2-oxo-1,8-naphthyridin-3-yl)-piperidine] gave a half-inhibitory concentration (IC50) of 0.1 to 10 nM.
With `CC(C)(C)CN1Cc2c(ccc3[nH]ncc23)CC(NC(=O)N2CCC3(CC2)NC(=O)Nc2ccccc23)C1=O` (stereo not shown) [Example 23, N-[9-(2,2-dimethylpropyl)-8-oxo-3,6,7,8,9,10-hexahydroazepino[3,4-e]indazol-7-yl]-2′-oxo-2′,3′dihydro-1H, 1′H-spiro[piperidine-4,4′-quinazoline]-1-carboxamide] the figure was 10 to 100 nM; with `O=C1Nc2ccccc2C2(CCN(C(=O)N[C@@H]3Cc4ccc5[nH]ncc5c4CN(CCN4CCOCC4)C3=O)CC2)N1` [Example 8, ′H-Spiro[piperidine-4,4′-quinazolin]-2′(3′H)-one-1-carboxylic acid [9-(2-morpholin-4-yl-ethyl)-8-oxo-3,6,7,8,9,10-hexahydro-2,3,9-triaza-(R)-cyclohepta[e]inden-7-yl]-amide], above 1000 nM; with `CC(C)(C)CN1Cc2c(ccc3[nH]ncc23)C[C@@H](NC(=O)N2CCC(c3cc(-c4ccccc4)no3)CC2)C1=O` [Example 65, (R)-N-(9-neopentyl-8-oxo-3,6,7,8,9,10-hexahydroazepino[3,4-e]indazol-7-yl)-4-(3-phenylisoxazol-5-yl)piperidine-1-carboxamide], above 1000 nM.
With `CC(C)(C)CN1Cc2c(ccc3[nH]ncc23)C[C@@H](NC(=O)N2CCC(C3Cc4ccccc4NC3=O)CC2)C1=O` (stereo partly drawn) [Example 67, N-((R)-9-neopentyl-8-oxo-3,6,7,8,9,10-hexahydroazepino[3,4-e]indazol-7-yl)-4-(2-oxo-1,2,3,4-tetrahydroquinolin-3-yl)piperidine-1-carboxamide] the figure was 10 to 100 nM.
For the compound `O=C(C[C@@H]1Cc2cc(Br)c3[nH]ncc3c2CN(CC(F)(F)F)C1=O)N1CCC(c2cc3cccc(F)c3[nH]c2=O)CC1` [Example 98, (S)-4-bromo-7-(2-(4-(8-fluoro-2-oxo-1,2-dihydroquinolin-3-yl)piperidin-1-yl)-2-oxoethyl)-9-(2,2,2-trifluoroethyl)-6,7,9,10-tetrahydroazepino[3,4-e]indazol-8(3H)-one], the IC50 lay in the range of 10 to 100 nM.
Consider `CC(C)(C)CN1Cc2c(cc(Br)c3[nH]ncc23)C[C@@H](CC(=O)N2CCC(c3cc4ccccc4[nH]c3=O)CC2)C1=O` [Example 94, (S)-4-bromo-9-neopentyl-7-(2-oxo-2-(4-(2-oxo-1,2-dihydroquinolin-3-yl)piperidin-1-yl)ethyl)-6,7,9,10-tetrahydroazepino[3,4-e]indazol-8(3H)-one], for which the 50% inhibitory concentration (IC50) fell in the range of 0.1 to 10 nM.
Consider `CC(C)(C)CN1Cc2c(ccc3[nH]ncc23)C[C@@H](CCN2CCC(N3Cc4ccccc4NC3=O)CC2)C1=O` [Example 64, (S)-9-neopentyl-7-(2-(4-(2-oxo-1,2-dihydroquinazolin-3(4H)-yl)piperidin-1-yl)ethyl)-6,7,9,10-tetrahydroazepino[3,4-e]indazol-8(3H)-one], for which the IC50 is above 1000 nM.
`O=C(C[C@@H]1Cc2ccc3[nH]ncc3c2CN(Cc2ccccc2)C1=O)N1CCC(N2Cc3ccccc3NC2=O)CC1` [Example 38, (S)-9-Benzyl-7-(2-oxo-2-(4-(2-oxo-1,2-dihydroquinazolin-3(4H)-yl)piperidin-1-yl)ethyl)-6,7,9,10-tetrahydroazepino[3,4-e]indazol-8(3H)-one] showed an IC50 of 100 to 1000 nM.
Take `CC(C)(C)OC(=O)N1CCC(N2Cc3c(ccc4[nH]ncc34)C[C@@H](NC(=O)N3CCC(N4Cc5ccccc5NC4=O)CC3)C2=O)CC1` [Example 17]: the half-inhibitory concentration (IC50) was in the range of 10 to 100 nM.
Consider `CC(C)(C)CN1Cc2c(cc(Cl)c3[nH]ncc23)C[C@@H](CC(=O)N2CCC(c3cc4ccccc4cc3O)CC2)C1=O` [Example 74, 1-[[7-(S)-4-choro-9-(2,2-Dimethylpropyl)-3,6,7,8,9,10-hexahydro-8-oxoazepino[3,4-e]indazol-7-yl]acetyl]-4-(3-hydroxy-2-naphthalenyl)piperidine], for which the IC50 was above 1000 nM.
`O=C(C[C@@H]1Cc2cc(Cl)c3[nH]ncc3c2CN(CC(F)(F)F)C1=O)N1CCC(N2Cc3ccccc3NC2=O)CC1` [Example 75, 1-[[(7S)-4-Chloro-3,6,7,8,9,10-hexahydro-8-oxo-9-(2,2,2-trifluoroethly)azepino[3,4-e]indazol-7-yl]acetyl]-4-(1,4-dihydro-2-oxo-3(2H)-quinazolinyl)-piperidine]: the IC50 was 0.1 to 10 nM.
`O=C(N[C@@H]1Cc2ccc3[nH]ncc3c2CN(CCN2CCCC2)C1=O)N1CCC(N2Cc3ccccc3NC2=O)CC1` [Example 4, 4-(2-Oxo-1,4-dihydro-2H-quinazolin-3-yl)-piperidine-1-carboxylic acid [8-oxo-9-(2-pyrrolidin-1-yl-ethyl)-3,6,7,8,9,10-hexahydro-2,3,9-triaza-(R)-cyclohepta[e]inden-7-yl]-amide] registered an IC50 of 100 to 1000 nM.
`C=C(C)c1cc2c(c3cn[nH]c13)CN(CC(F)(F)F)C(=O)[C@H](CC(=O)N1CCC(c3cc4ccccc4[nH]c3=O)CC1)C2` [Example 108, (S)-7-(2-oxo-2-(4-(2-oxo-1,2-dihydroquinolin-3-yl)piperidin-1-yl)ethyl)-4-(prop-1-en-2-yl)-9-(2,2,2-trifluoroethyl)-6,7,9,10-tetrahydroazepino[3,4-e]indazol-8(3H)-one]: the IC50 was 10 to 100 nM.

(Values after patent publication US7384931B2, “Constrained compounds as CGRP-receptor antagonists” (Bristol-Myers Squibb Company, priority 2004, dated 2008).)
